Assay results from patent US9271978B2 (Zenith Epigenetics Corp., priority 2012, dated 2016).

Columns and labels:
[1] = target: T1, Brd4 bromodomain 1 (BRD4(1)) (Homo sapiens, UniProt O60885); assay: Inhibition of tetra-acetylated histone H4 binding to Brd4 bromodomain 1 (TR-FRET); parameters: key: Active: Compounds with an IC50 value less than 30 μM were deemed to be active.; Not Active: Compounds with an IC50 value less than 30 μM were deemed to be active; conditions: tetra-acetylated histone H4 peptide, active = IC50 <30 μM
T1 construct: Illustrative results with the first bromodomain of Brd4; made in house; host or cells: E. coli BL21 (DE3)
How it was run: (§1)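 N-terminally His-tagged bromodomains (200 nM), expressed in E. coli, were incubated with biotinylated tetra-acetylated histone H4 peptide (25-50 nM), Eu-cryptate streptavidin and XL665 anti-His antibody in HEPES pH 7.4 buffer with KF, 0.2% DMSO, 2 h at room temperature. Inhibition read as decreased 665/620 nm TR-FRET; IC50 from dose-response curves.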

[2] = target: T2, second bromodomain of Brd2 (BRD2(2)) (Homo sapiens, UniProt P25440); assay: Inhibition of tetra-acetylated histone H4 binding to Brd2 bromodomain 2 (TR-FRET); parameters: key: Active: Compounds with an IC50 value less than 30 μM were deemed to be active.; Not Active: Compounds with an IC50 value less than 30 μM were deemed to be active; conditions: tetra-acetylated histone H4 peptide, active = IC50 <30 μM
T2 construct: made in house; host or cells: E. coli BL21 (DE3)
T2 sequence (P25440 344-453 limits assumed): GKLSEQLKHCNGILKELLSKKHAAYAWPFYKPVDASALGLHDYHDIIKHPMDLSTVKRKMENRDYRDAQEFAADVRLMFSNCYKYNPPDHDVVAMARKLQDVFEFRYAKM
How it was run: as §1

hIL-6 mRNA = assay: Inhibition of hIL-6 mRNA transcription in U937 cells; format: cell-based, human; parameters: key: Active: Compounds with an IC50 value less than 30 μM were deemed to be active.; Not Active: Compounds with an IC50 value less than 30 μM were deemed to be active; conditions: LPS stimulation, active = IC50 <30 μM
How it was run: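 U937 cells differentiated 3 days with 60 ng/mL PMA, pretreated 1 h with compound, then stimulated with 1 ug/mL E. coli LPS for 3 h at 37° C. hIL-6 mRNA quantified by one-step qRT-PCR, Ct normalized to internal control, expressed as fold induction relative to control.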

ApoA-I mRNA = assay: Up-regulation of hApoA-1 mRNA transcription in Huh7 cells; format: cell-based, human; parameters: key: Active: Compounds with an EC170 value less than 30 μM were deemed to be active; conditions: 48 h treatment, ApoA-I mRNA by real-time PCR, Active = EC170 less than 30 μM
Experimental: In this example, ApoA-I mRNA in tissue culture cells was quantitated to measure the transcriptional up-regulation of ApoA-I when treated with a compound of the present disclosure.
Huh7 cells (2.5×10^5 per well) were plated in a 96-well plate using 100 μL DMEM per well, (Gibco DMEM supplemented with penicillin/streptomycin and 10% FBS), 24 h before the addition of the compound of interest. After 48 h treatment, the spent media was removed from the Huh-7 cells and placed on ice (for immediate use) or at −80° C. (for future use) with the “LDH cytotoxicity assay Kit II” from Abcam. The cells remaining in the plate were rinsed with 100 μL PBS.
Then 85 μL of cell lysis solution was added to each well and incubated for 5-10 min at room temperature, to allow for complete cell lysis and detachment. mRNA was then prepared using the “mRNA Catcher PLUS plate” from Life Technologies, according to the protocol supplied. After the last wash, as much wash buffer as possible was aspirated without allowing the wells to dry. Elution Buffer (E3, 80 μL) was then added to each well. mRNA was then eluted by incubating the mRNA Catcher PLUS plate with Elution Buffer for 5 min at 68° C., and then 1 min at 4° C. Catcher plates with mRNA eluted were kept on ice for use or stored at −80° C.
The eluted mRNA isolated was then used in a one-step real-time PCR reaction, using components of the Ultra Sense Kit together with Life Technologies primer-probe mixes. Real-time PCR data was analyzed, using the Ct values, to determine the fold induction of each unknown sample, relative to the control (that is, relative to the control for each independent DMSO concentration).
Compounds with an EC170 value less than 30 μM were deemed to be active.

[3] = tested on: human AML MV-4-11 (CRL-9591) cells; assay: Inhibition of cell proliferation in MV4-11 cells; format: cell-based; parameters: key: Active: Compounds with an IC50 value less than 30 μM were deemed to be active.; Not Active: Compounds with an IC50 value less than 30 μM were deemed to be active; conditions: human AML MV-4-11 cells, 72 h; active = IC50 <30 μM
How it was run: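 Exponentially growing MV-4-11 cells (5×10^4/well) were treated immediately with two-fold dilutions of compound from 30 μM to 0.2 μM, in triplicate, for 72 h at 37° C, 5% CO2. Viability was measured by MTS absorbance at 490 nm after 3–4 h. Proliferation relative to DMSO after blank correction gave IC50.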

c-myc = assay: Inhibition of c-myc expression in MV4-11 cells (mRNA, real-time PCR); format: cell-based; parameters: key: Active: Compounds with an IC50 value less than 30 μM were deemed to be active.; Not Active: Compounds with an IC50 value less than 30 μM were deemed to be active; conditions: Human AML MV4-11 cells, 3 h incubation
How it was run: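 MV4-11 cells (2.5×10^4) treated with compound or 0.1% DMSO for 3 h at 37 °C. c-myc mRNA measured by RT real-time PCR duplexed with cyclophilin. IC50 from dose–response curve.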

Compound | FRET activity (IC50 <30 μM) BRD4(1) [1] | FRET activity (IC50 <30 μM) BRD2(2) [2] | IL-6 activity (IC50 <30 μM) (hIL-6 mRNA) | Cell Proliferation activity (IC50 <30 μM) [3] | c-myc activity (IC50 <30 μM) (c-myc) | ApoA-1 activity (EC170 <30 μM) (ApoA-I mRNA)
Cc1noc(C)c1-c1ccc(=O)n([C@H](C)c2ccc(F)cc2)c1 (single isomer, unassigned) [Example 111] | Active | Active | Active | – | – | Active
Cc1noc(C)c1-c1cn(Cc2ccccc2)c(=O)cn1 [Example 6, 1-Benzyl-5-(3,5-dimethylisoxazol-4-yl)pyrazin-2(1H)-one] | Active | Active | Active | Active | – | Active
Cc1noc(C)c1-c1ccc(=O)n(Cc2ccc(C(F)(F)F)cc2)c1 [Example 7, 5-(3,5-Dimethylisoxazol-4-yl)-1-(4-(trifluoromethyl)benzyl)pyridin-2(1H)-one] | Active | Active | Active | Active | – | Active
COc1cc(-c2ccc(=O)n(Cc3ccc(C#N)cc3)n2)cc(OC)c1OC [Example 16, 4-((6-Oxo-3-(3,4,5-trimethoxyphenyl)pyridazin-1(6H)-yl)methyl)benzonitrile] | Active | Active | – | – | Not Active | Active
Cc1noc(C)c1-c1cc(Nc2ccccc2)c(=O)n(Cc2ccccc2)c1 [Example 72, 1-Benzyl-5-(3,5-dimethylisoxazol-4-yl)-3-(phenylamino)pyridin-2(1H)-one] | Active | Active | Active | – | Active | Active
Cc1noc(C)c1-c1ccc(=O)n(C(C)c2ccccn2)c1 (stereo not drawn) [Example 112, 5-(3,5-Dimethylisoxazol-4-yl)-1-(1-(pyridin-2-yl)ethyl)pyridin-2(1H)-one] | Active | Active | Not Active | – | – | Active
Cc1onc(CO)c1-c1ccc(=O)n(Cc2ccccc2)c1 [Example 158, 1-Benzyl-5-(3-(hydroxymethyl)-5-methylisoxazol-4-yl)pyridin-2(1H)-one] | Active | – | – | – | – | Active
Cc1nscc1-c1ccc(=O)n(Cc2ccccc2)c1 [Example 160, 1-Benzyl-5-(3-methylisothiazol-4-yl)pyridin-2(1H)-one] | Active | – | – | – | – | Active
CN1CCN(c2ccc(=O)n(Cc3ccccc3)n2)CC1=O [Example 179, 2-benzyl-6-(4-methyl-3-oxopiperazin-1-yl)pyridazin-3(2H)-one] | Active | – | Active | Active | Active | Active

Continued, in another order:

FRET activity (IC50 <30 μM) BRD4(1) [1] | FRET activity (IC50 <30 μM) BRD2(2) [2] | IL-6 activity (IC50 <30 μM) (hIL-6 mRNA) | Cell Proliferation activity (IC50 <30 μM) [3] | c-myc activity (IC50 <30 μM) (c-myc) | Compound | ApoA-1 activity (EC170 <30 μM) (ApoA-I mRNA)
Active | – | Not Active | Not Active | Active | Cc1noc(C)c1-c1cc(Cl)c(=O)n(Cc2ccc(F)cc2)c1 [Example 181, 3-chloro-5-(3,5-dimethylisoxazol-4-yl)-1-(4-fluorobenzyl)pyridin-2(1H)-one] | Active
Active | – | Active | Not Active | Active | Cc1noc(C)c1-c1cc(Nc2ccccc2)c(=O)n(Cc2ccc(F)cc2)c1 [Example 182, 5-(3,5-dimethylisoxazol-4-yl)-1-(4-fluorobenzyl)-3-(phenylamino)pyridin-2(1H)-one] | Active
Active | – | – | Active | Active | Cc1noc(C)c1-c1cc(N2CCC2)c(=O)n(Cc2ccccc2)c1 [Example 183, 3-(Azetidin-1-yl)-1-benzyl-5-(3,5-dimethylisoxazol-4-yl)pyridin-2(1H)-one] | Active
Active | – | – | Active | Active | Cc1noc(C)c1-c1cc(Nc2ccn(C)n2)c(=O)n(Cc2ccccc2)c1 [Example 184, 1-benzyl-5-(3,5-dimethylisoxazol-4-yl)-3-((1-methyl-1H-pyrazol-3-yl)amino)pyridin-2(1H)-one] | Active
Active | – | Active | – | – | Cc1noc(CO)c1-c1ccc(=O)n(Cc2ccccc2)c1 [Example 214, 1-benzyl-5-(5-(hydroxymethyl)-3-methylisoxazol-4-yl)pyridin-2(1H)-one] | Active
Active | – | Not Active | – | – | Cc1noc(C)c1Nc1cc(-c2c(C)noc2C)cn(Cc2ccccc2)c1=O [Example 217, 1-benzyl-5-(3,5-dimethylisoxazol-4-yl)-3-((3,5-dimethylisoxazol-4-yl)amino)pyridin-2(1H)-one] | Active
Active | – | Active | – | – | C=Cc1ccc(Cn2cc(-c3c(C)noc3C)ccc2=O)cc1 [Example 218, 5-(3,5-Dimethylisoxazol-4-yl)-1-(4-vinylbenzyl)pyridin-2(1H)-one] | Active
